Source: patent publication US20230011269A1, “PHARMACEUTICAL COMPOSITION COMPRISING A POTENT INHIBITOR OF URAT1” (Ardea Biosciences, Inc., priority 2015, published 2023)

Assays:
serum urate = experiment: Phase 1 single dose study, immediate release formulations: serum urate lowering; type: in vivo, human; conditions: mean maximum observed percentage change from pre-dose in serum urate concentrations (Emax)
Source text: A phase 1, randomized, double-blind, placebo-controlled study in healthy adult male volunteers evaluated single rising doses and the preliminary food effect for 2-((3-(4-cyanonaphthalen-1-yl)pyridine-4-yl)thio)-2-methylpropanoic acid at 6 dose groups with 8 subjects per group. […] Subjects in each dose group were randomized to receive a single dose of either 2-((3-(4-cyanonaphthalen-1-yl)pyridine-4-yl)thio)-2-methylpropanoic acid (6 subjects) or placebo (2 subjects). 2-((3-(4-cyanonaphthalen-1-yl)pyridine-4-yl)thio)-2-methylpropanoic acid was supplied as 1 mg oral solution, 2 mg oral solution, 5 mg tablets, or 20 mg tablets (depending on dose level).
The mean plasma concentration-time profiles for the IR formulations under fed and fasted conditions are depicted in FIGS. 3a and 3b. Absorption of 2-((3-(4-cyanonaphthalen-1-yl)pyridine-4-yl)thio)-2-methylpropanoic acid following a single oral dose under fasted conditions was rapid. […] When 2-((3-(4-cyanonaphthalen-1-yl)pyridine-4-yl)thio)-2-methylpropanoic acid was administered with food, slightly slower absorption and lower exposure were observed. […] Important pharmacodynamic parameters related to the serum Uric Acid lowering effects are shown in the following two tables: […]

[1] = Phase 1 study of MR formulations MR1-5: plasma pharmacokinetics; type: in vivo; conditions: male, human, oral, 5 mg, MR1-MR5 formulations, fasted and fed (Table 9), read-out: average terminal half-life
Experimental: A Phase 1, randomized study to evaluated the PK, PD, and safety and tolerability of 2-((3-(4-cyanonaphthalen-1-yl)pyridine-4-yl)thio)-2-methylpropanoic acid MR formulations in n=12 healthy adult male subjects in fasted and fed states. This study evaluated a total of 5 MR formulations at a 5 mg dose. The MR formulations tested are those described in Examples 2-6. Plasma samples for PK analysis were collected at the following time points: Pre-dose (within 30 minutes before dosing) and at 0.25, 0.5, 0.75, 1, 1.5, 2, 2.5, 3, 4, 5, 6, 8, 10, 12, 24, 30, 36, 48, 54, 60 and 72 hours post-dose. A summary of the mean plasma pharmacokinetic parameters following administration of the MR compositions of 2-((3-(4-cyanonaphthalen-1-yl)pyridine-4-yl)thio)-2-methylpropanoic acid are provided in Table 9.

[2] = Phase 1 crossover study MR4 4 x 2.5 mg vs 10 mg tablet, food effect: plasma pharmacokinetics; conditions: male, human, in vivo
Experimental: A Phase 1, randomized, open label, 4 way crossover PK and PD study in healthy adult male subjects designed to assess the relative bioavailability of 2-((3-(4-cyanonaphthalen-1-yl)pyridine-4-yl)thio)-2-methylpropanoic acid 2.5 mg MR tablets administered as a 10 mg dose (4×2.5 mg tablets) and a single 2-((3-(4-cyanonaphthalen-1-yl)pyridine-4-yl)thio)-2-methylpropanoic acid 10 mg MR tablet. The 10 mg MR tablet was prepared as described in Example 5a. This study also assessed the effect of a low fat and high fat meal on the PK and PD of 2-((3-(4-cyanonaphthalen-1-yl)pyridine-4-yl)thio)-2-methylpropanoic acid 10 mg MR tablets. Sixteen subjects were randomized to 1 of 4 treatment sequences. The treatments administered on Days 1 or 5 according to the randomization schedule were as follows: • Treatment A: 10 mg dose of 2-((3-(4-cyanonaphthalen-1-yl)pyridine-4-yl)thio)-2-methylpropanoic acid, administered as 4×2.5 mg ER tablets, in the fasted state. • Treatment B: 10 mg dose of 2-((3-(4-cyanonaphthalen-1-yl)pyridine-4-yl)thio)-2-methylpropanoic acid, administered as a single 10 mg ER tablet, in the fasted state. […]

half-life [1]: 10 to 28 h
decrease of AUC∞ by a low-fat meal compared with the fasted state [2]: ~17%
decrease of Cmax by a low-fat meal compared with the fasted state [2]: approximately 21%
Structure (SMILES): CC(C)(Sc1ccncc1-c1ccc(C#N)c2ccccc12)C(=O)O [2-((3-(4-cyanonaphthalen-1-yl)pyridine-4-yl)thio)-2-methylpropanoic acid]
Mean % change in sUA from predose (serum urate; 2 mg/Fasted): 8%
Mean % change in sUA from predose (serum urate; 5 mg/Fasted): 15%
Mean % change in sUA from predose (serum urate; 20 mg/Fasted): 43%
Mean % change in sUA from predose (serum urate; 40 mg/Fasted): 58%
